Counter-ions that a name gives are not always drawn.
What was measured:
h-5-HT6 receptor = biological target: T1, h-5-HT6 receptor (Homo sapiens, UniProt P50406); assay: 5-HT6 receptor binding assay (displacement of [3H]-LSD); conditions: membranes of HEK293 cells expressing h-5-HT6 receptor, 1 nM [3H]-LSD
T1 construct: expressed in transfected cells
Experimental: Displacement of radioligands binding to the following cloned human receptors
Cells from stable clonal cell lines expressing the corresponding receptor (5-HT6, α1-adrenergic, dopamine D2 or histamine H1 receptors) were washed with PBS (w/o Ca^++, Mg^++) and harvested in PBS with 0.02% EDTA. The cells were collected by centrifugation at 500 g for 10 min. at 4° C., washed with PBS and centrifuged (500 g, 10 min. 4° C.). The pellets were stored at −80° C. until use. For membrane preparation, the thawed cell pellet was resuspended in ice-cold sucrose buffer (0.25 M sucrose, 10 mM Hepes (pH 7.4), 1 mM Phenylmethylsulfonyl fluoride (PMSF) in DMSO, 5 μg/ml Pepstatin-A, 3 mM EDTA, 0.025% Bacitracin) and homogenized with a Branson Sonifier W-250 (Settings: Timer 4; Output Control 3; Duty Cycle constant; 2 to 3 cycles). Cell disruption was checked with the aid of a microscope. Remaining unbroken cells were pelleted at 1.000 g for 10 min. at 4° C. The sucrose buffer supernatant was then centrifuged at 60.000 g for 1 h at 4° C. (Beckman Ultrazentrifuge XL 80). The pellet was resuspended in 30 ml ice-cold Tris buffer (20 mM TRIS (pH 7.4), 5 μg/ml Pepstatin A, 0.1 mM PMSF, 3 mM EDTA) by pipetting through a 10 ml serological pipet and centrifuged for 1 h at 4° C. at 60.000 g. A final resuspension was performed in a small volume of ice-cold Tris buffer (see above) by pressing through a serological pipet followed by ultrasonic treatment with a Branson Sonifier W-250 (Settings: Timer 1; Output Control 3; Duty Cycle constant; 1 cycle). Protein concentration was determined (BCA-Kit; Pierce) and aliquots stored at −80° C. or in liquid nitrogen for long-term storage.
All receptor binding experiments were carried out in the corresponding assay buffer in a total volume of 200 μl in the presence of various concentrations of test compound (10^−5 M to 10^−9 M, tenfold serial dilution, duplicate determinations). The assays were terminated by filtration on polyethylenimine (PEI 0.1% or 0.3%) presoaked Packard Unifilter Plates (GF/C or GF/B) with a Tomtec MachIII U 96 well-plate harvester. After the plates had been dried for 2 h at 55° C. in a drying chamber scintillation cocktail (BetaPlate Scint; PerkinElmer) was added. Radioactivity was measured in a Microbeta Trilux two hours after the addition of the scintillation mixture. Data derived from liquid scintillation counting were analysed by iterative non-linear regression analysis with the use of the Statistical Analysis System (SAS): a program similar to “LIGAND” as described by Munson and Rodbard (Analytical Biochemistry 107, 220-239 (1980).
HEK293 cells stably expressing the h-5-HT6 receptor (NCBI Reference Sequence XM 001435) were cultured in RPMI1640 medium supplemented with 25 mM HEPES, 10% fetal calf serum and 1-2 mM glutamine. The membrane preparation was performed as described in section 1. […] Non-specific binding was defined with 1 μM methiothepin. The binding reaction was carried out for 3.5 h at room temperature. During the incubation, the plates were shaken on a plate shaker at 100 rpm and terminated by filtration on Packard Unifilter GF/C (0.1% PEI) plates, followed by 2 wash cycles with ice-cold 50 mM Tris-HCl, 5 mM CaCl2.
Data derived from liquid scintillation counting were analyzed by iterative non-linear regression analysis with the use of the Statistical Analysis System (SAS): a program similar to “LIGAND” as described by Munson and Rodbard (Anal. Biochem. 1980, 107, 220-239). Fitting was performed according to formulae described by Feldman (Anal. Biochem. 1972, 48, 317-338). IC50, nH and Ki values were expressed as geometrical mean.

dopamine D2 receptor = biological target: T2, dopamine D2 receptor (Homo sapiens, UniProt P14416); assay: Dopamine D2 receptor binding assay (displacement of [125I]-iodospiperone); conditions: saturation binding experiments, HEK293 D2 membranes; read-out: KD of radioligand
T2 construct: expressed in transfected cells
T2 sequence (P14416 whole entry): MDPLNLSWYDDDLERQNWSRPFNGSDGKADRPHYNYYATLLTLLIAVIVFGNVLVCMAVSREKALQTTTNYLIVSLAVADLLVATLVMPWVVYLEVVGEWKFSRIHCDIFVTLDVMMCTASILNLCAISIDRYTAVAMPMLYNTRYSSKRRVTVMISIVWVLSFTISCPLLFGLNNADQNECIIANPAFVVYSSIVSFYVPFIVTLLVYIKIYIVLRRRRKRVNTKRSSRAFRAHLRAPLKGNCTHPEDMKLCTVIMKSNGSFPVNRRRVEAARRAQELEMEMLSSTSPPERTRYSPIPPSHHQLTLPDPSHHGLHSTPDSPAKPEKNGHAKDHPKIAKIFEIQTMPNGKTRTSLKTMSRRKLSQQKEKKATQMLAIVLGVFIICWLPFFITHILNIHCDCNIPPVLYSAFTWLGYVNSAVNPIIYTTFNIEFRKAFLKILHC
Experimental: The pellets were stored at −80° C. until use. […] (Beckman Ultrazentrifuge XL 80).
Non-specific binding was defined with 1 μM haloperidol.

T1 sequence (P50406 whole entry): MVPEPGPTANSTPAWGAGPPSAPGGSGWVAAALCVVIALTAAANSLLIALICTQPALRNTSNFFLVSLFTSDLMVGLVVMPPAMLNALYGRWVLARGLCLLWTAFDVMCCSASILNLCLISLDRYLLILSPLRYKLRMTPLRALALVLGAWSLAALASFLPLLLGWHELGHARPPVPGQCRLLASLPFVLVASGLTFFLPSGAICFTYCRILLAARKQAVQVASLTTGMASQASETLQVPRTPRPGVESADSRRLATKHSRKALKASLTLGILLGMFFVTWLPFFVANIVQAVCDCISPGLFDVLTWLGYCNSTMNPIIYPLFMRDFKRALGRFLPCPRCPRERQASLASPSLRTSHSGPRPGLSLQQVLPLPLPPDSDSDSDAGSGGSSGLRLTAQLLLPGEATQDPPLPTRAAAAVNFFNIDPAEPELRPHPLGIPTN

Molecule | Ki (h-5-HT6 receptor) | Kd (dopamine D2 receptor)
COc1ccc(S(=O)(=O)Nc2cc(C)ccc2OC(F)F)cc1C1CCNC1 (centres unmarked) [Example 1, N-(2-Difluoromethoxy-5-methyl-phenyl)-4-methoxy-3-pyrrolidin-3-yl-benzenesulfonamide hydrochloride] | < 0.01 µM | –
COc1ccc(S(=O)(=O)Nc2cc(C)ccc2OC(F)F)cc1C1CCN(C)C1 (centres unmarked) [Example 2, N-(2-Difluoromethoxy-5-methyl-phenyl)-4-methoxy-3-(1-methyl-pyrrolidin-3-yl)-benzenesulfonamide hydrochloride] | < 0.01 µM | –
COCc1ccccc1NS(=O)(=O)c1ccc(OC)c(C2CCNC2)c1 (centres unmarked) [Example 3, 4-Methoxy-N-(2-methoxymethyl-phenyl)-3-pyrrolidin-3-yl-benzenesulfonamide hydrochloride] | < 0.02 µM | –
COc1ccc(S(=O)(=O)Nc2cc(C)ccc2OC(F)F)cc1C1CCNCC1 [Example 4, N-(2-Difluoromethoxy-5-methyl-phenyl)-4-methoxy-3-piperidin-4-yl-benzenesulfonamide hydrochloride] | < 0.01 µM | –
COc1ccc(S(=O)(=O)Nc2ccc(C)cc2OC(F)F)cc1C1CCNCC1 [Example 5, N-(2-Difluoromethoxy-4-methyl-phenyl)-4-methoxy-3-piperidin-4-yl-benzenesulfonamide hydrochloride] | < 0.02 µM | –
COCc1ccccc1NS(=O)(=O)c1ccc(OC)c(C2CCNCC2)c1 [Example 6, 4-Methoxy-N-(2-methoxymethyl-phenyl)-3-piperidin-4-yl-benzenesulfonamide hydrochloride] | < 0.1 µM | –
COc1ccc(S(=O)(=O)Nc2cc(C)ccc2OC(F)F)cc1C1CCN(C)CC1 [Example 7, N-(2-Difluoromethoxy-5-methyl-phenyl)-4-methoxy-3-(1-methyl-piperidin-4-yl)-benzenesulfonamide hydrochloride] | < 0.01 µM | –
iodospiperone [[^125I]-iodospiperone] | – | 0.00022 µM

Source: patent publication US8772313B2, “Benzenesulfonyl or sulfonamide compounds suitable for treating disorders that respond to the modulation of the serotonin 5-HT6 receptor” (Abbott Laboratories, priority 2010, dated 2014)
